One series deals with Trem2-deficient BMDMs. As to the kind of experiment: Extracellular acidification rate (ECAR), XF96 Extracellular Flux Analyzer. The class given is cell-based, mouse. The note with it: overnight 0.5% LCCM, 10 mM cyclocreatine. The method, then: To prepare bone marrow-derived macrophages, femurs and tibias were removed and flushed with PBS. Cells were counted and plated at 2.5×10^6 cells/100 mm petri dish in RPMI supplemented with Glutamax, penicillin/streptomycin, non-essential amino acids, pyruvate, and 10% heat inactivated fetal bovine serum (complete RPMI) and 10% L-cell conditioned medium (LCCM). Cells were cultured for 4-5 days before use. Microglia were prepared as previously described (Wang et al., 2015). Briefly, brains were dissociated by using a Neural Tissue Dissociation Kit (T) (Miltenyi Biotech Cat. Number 130-093-231). Cell suspensions were labeled with anti-mouse CD45 magnetic beads and isolated on LS columns (Miltenyi Biotic). Cells were plated onto poly-L-lysine coated polystyrene plates in complete RPMI supplemented with 20% LCCM and 10 ng/ml human TGF-β. Media was changed on day 3 post plating and cells were used 5-7 days post plating. ATP concentrations were determined with an ATP Determination Kit (Invitrogen). For real-time analysis of extracellular acidification rates (ECAR) macrophages were analyzed using an XF96 Extracellular Flux Analyzer (Agilent Technologies). Cells were incubated overnight in complete RPMI in the indicated concentration of LCCM with or without cyclocreatine (10 mM). […]

The test system of series [1] is Trem2−/− BMDMs. As to the kind of experiment: Immunoblots for autophagy (LC3, p62) and mTOR signaling in BMDM in limiting CSF1 with rescuing agent. The note with it: Trem2-deficient BMDMs, overnight 0.5% LCCM, 5 mM cyclocreatine. The class given is cell-based, mouse. As to the method: (§1) To prepare bone marrow-derived macrophages, femurs and tibias were removed and flushed with PBS. Cells were counted and plated at 2.5×10^6 cells/100 mm petri dish in RPMI supplemented with Glutamax, penicillin/streptomycin, non-essential amino acids, pyruvate, and 10% heat inactivated fetal bovine serum (complete RPMI) and 10% L-cell conditioned medium (LCCM). Cells were cultured for 4-5 days before use. Microglia were prepared as previously described (Wang et al., 2015). Briefly, brains were dissociated by using a Neural Tissue Dissociation Kit (T) (Miltenyi Biotech Cat. Number 130-093-231). Cell suspensions were labeled with anti-mouse CD45 magnetic beads and isolated on LS columns (Miltenyi Biotic). Cells were plated onto poly-L-lysine coated polystyrene plates in complete RPMI supplemented with 20% LCCM and 10 ng/ml human TGF-β. Media was changed on day 3 post plating and cells were used 5-7 days post plating. ATP concentrations were determined with an ATP Determination Kit (Invitrogen).
(§2) BMDM or microglia were lysed in RIPA buffer (50 mM Tris, 150 mM NaCl, 1% SDS, and 1% Triton X100) containing PMSF, leupeptin, activated sodium orthovanidate, apoprotinin, and phosphatase inhibitor cocktail 3 (Sigma Aldrich Cat. Number P0044). Lysates were flash frozen on dry ice and stored at −80° C. until use. Lysates were thawed and 4× LDS running buffer and 10% β-mercaptoethanol were added. […]

The subject of another series is Trem2−/− BMDM. As to the kind of experiment: Viability of BMDM in 0.5% LCCM. Type of series: cell-based, mouse. The note with it: Trem2-deficient BMDMs, 40 hours in 0.5% LCCM.
For series [2], the system named is Trem-2 deficient macrophages. Description: Supplementation of Trem2-deficient macrophages with creatine analogs. Type of series: cell-based, mouse. The following applies: supplemented media.
Another series concerns Trem2−/− 5XFAD mice. Description: Dietary cyclocreatine in Trem2−/− 5XFAD mice: TEM and confocal microscopy of brain. The class given is in vivo, mouse. An excerpt:
(§3) The generation of Trem2^−/− and Trem2^−/− SXFAD mice has been described previously (Oakley et al., 2006; Turnbull et al., 2006; Wang et al., 2015). All mice were on a C57BL/6 background. Age and sex matched mice were used for all experiments; experimental cohorts of mice were cohoused from birth to control for the microbiota. For in vivo cyclocreatine treatment 10-week old mice were put on cyclocreatine-containing water, treatment was continued until mice reached 8 months of age (Santa Cruz SC-217964 S). Desired intake of cyclocreatine was approximately 0.28 mg/g of body weight/day, which is approximately the same as the standard creatine dose used in humans of 285 mg/kg of body weight/day (Kurosawa et al., 2012). Cyclocreatine was administered in drinking water at a final concentration of 2.33 mg/ml. The Institutional Animal Care and Use Committee at Washington University in St. Louis approved all protocols used in this study.
For quantitation of multivesicular/multilamellar structures, 30 cells that were cross-sectioned through the nucleus (indicating cross-section through the middle of cell) were randomly chosen, and images of each cell were taken at 6,000× and 20,000× magnification. The cross-sectional area of each of the multivesicular structures were determined using Image J 1.38 g (National Institutes of Health, USA, customized for AMT images). Data is expressed as the 1) total number of a multivesicular/multilammelar structures per cross-sectional area of cytosol and 2) the total cross-sectional area of multivesicular/multilamellar structures per area of cytosol.
Confocal microscopy analysis was performed as previously described (Wang et al., 2015). Briefly, mice were anesthetized with ketamine/xylazine and perfused with ice-cold PBS containing 1 U/ml of heparin. Brains were fixed in 4% PFA overnight at 4° C. rinsed in PBS and incubated overnight at 4° C. in 30% sucrose before freezing in a 2:1 mixture of 30% sucrose and optimal cutting temperature compound. Serial 40 μm coronal sections were cut on a cryo-sliding microtome. Floating sections from 1.1 mm Bregma to 0.8 mm Bregma for cortical imaging or slides with fixed human sections were stained with lba-1 (Waco Chemicals Cat. Number 019-19741) overnight at 4° C. followed by staining with anti-rabbit IgG DyLight 549 (Vector Laboratories Cat. Number DI-1549) and methoxy-X04 (Tocris Cat. Number 4920) for 1 hour at RT. Finally, sections were stained for with anti-LC3 Alexa 488±anti-cleaved caspase 3 (Cell Signaling Technologies Cat. Number 13082 and 9602). Images were collected using a Nikon Al Rsi+ confocal microscope. Images were then processed with Imaris 7.7 (Bitplane).
Positions of microglia and positions and volumes of plaques within z-stacks were derived from analysis in Imaris, and microglia-plaque association was determined using automated scripts in Matlab. Briefly, each plaque in the z-stack was modeled as an idealized sphere with the same volume and center of mass. Microglia density within 15 μm of the plaque surface was determined by isolating the voxels of the image that fall within 15 μm of the edge of the idealized plaque. The number of microglia contained in these voxels was divided by the total volume of those voxels to obtain density for a single plaque. Densities of all plaques in a z-stack were averaged together, and the resulting values were averaged together for all z-stacks corresponding to a single animal.
To measure total plaque area, brain sections were stained with methoxy X04. Images were collected using a Nikon Eclipse 80i microscope. For quantitative analysis, images were converted to 8-bit greyscale and stitched using the “Stitching” plugin in ImageJ. Cortex (˜1.1 mm Bregma to 0.8 mm Bregma) and hippocampus (˜−1.7 Bregma to −2.4 Bregma) were determined by manual selection. […]

The subject of another series is 5XFAD mice. As to the kind of experiment: Dietary cyclocreatine in 5XFAD mice: confocal microscopy of brain. The class given is in vivo, mouse. The note with it: cyclocreatine-treated 5XFAD mice vs untreated Trem2−/− 5XFAD mice.
From the text: as §3
Confocal microscopy analysis was performed as previously described (Wang et al., 2015). Briefly, mice were anesthetized with ketamine/xylazine and perfused with ice-cold PBS containing 1 U/ml of heparin. Brains were fixed in 4% PFA overnight at 4° C. rinsed in PBS and incubated overnight at 4° C. in 30% sucrose before freezing in a 2:1 mixture of 30% sucrose and optimal cutting temperature compound. […]

Series [3] concerns microglia from Trem2−/− 5XFAD mice. Description: Immunoblots of microglia sorted ex vivo from cyclocreatine-treated mice. Type of series: in vivo, mouse. The note with it: microglia isolated ex vivo, cyclocreatine vs untreated.
From the text: as §3
Microglia were isolated from the indicated animals as previously described (Wang et al., 2015). CD45^+, CD11 b^+, F4/80^+ (Biolegend Cat. Number 103134, eBioscience Cat. Numbers 11-0112 and 17-4801) cells in the brain were fluorescence-activated cell-sorted (FACS) directly into RLT-plus lysis buffer for microarray or 2% FBS in PBS for TEM or immunoblot lysates. For microarray RNA extraction was performed using a RNeasy micro kit (QIAGEN). […]

A further series relates to creatine kinase. The following applies: in vitro and in vivo; cited from earlier work.
For series [4] the following is noted: cited from earlier work.
For series [5], the system named is Trem2−/− BMDMs. As to the kind of experiment: ER stress in BMDM (LC3 and phospho-Akt immunoblots). The class given is cell-based, mouse. The following applies: Trem2−/− BMDMs compared with WT BMDMs, 10% LCCM. The method, then:
as §1, §2
A general note: Immunoblotting shows a protein as a band on a membrane.

For series [6], the system named is Trem2−/− BMDMs. Description: Autophagic flux in BMDM with lysosomal inhibitor (LC3 immunoblot). The class given is cell-based, mouse. The note with it: bafilomycin for 5 hours prior to harvest. The method, then:
as §1, §2

The conditions of series [7]: compared with phosphocreatine; cited from earlier work.
Where [8] appears, read: Trem2−/− 5XFAD mice, cyclocreatine in drinking water from 10 weeks to 8 months.
Where [9] appears, read: Trem2−/− 5XFAD mice, cyclocreatine vs untreated.
Setting [10] is: cyclocreatine treated Trem2−/− 5XFAD mice.

Take `NC1=NCCN1CC(=O)O` [cyclocreatine, 1-carboxymethyl-2-iminoimidazolidine]: the ECAR result in the series with Trem2-deficient BMDMs is given as “improved”. Further, in the series with Trem2−/− BMDMs [1], the “autophagy (LC3 immunoblot)” value is “less autophagy” and the mTOR signaling result was “increased mTOR signaling”. Further, the viability entry in the series with Trem2−/− BMDM was “increased”. In [2], the autophagy result was “prevent”, the cell death result is “prevent” and the “metabolic activity / metabolic capacity” value is on record as “rescue”. In addition, in the series on Trem2−/− 5XFAD mice (8 months of age), the “engulfment of plaque particulates by microglia” value is given as “did not moderate”. For the same compound, in the series on Trem2−/− 5XFAD mice (setting [8]), the “number of LC3 puncta/cell” value was “significantly decreased”, the “percentage of LC3+ microglia” value was “significantly decreased” and the “percentage of cleaved caspase-3+ microglia” value was “significantly decreased”. Besides, the “multivesicular/multilamellar structures in microglia (TEM)” value in the series with Trem2−/− 5XFAD mice (Trem2−/− 5XFAD mice, cyclocreatine in drinking water from 10 weeks to 8 months, vs untreated) was “significantly fewer”. Moreover, in the series with Trem2−/− 5XFAD mice (setting [9]), the “clustering of microglia around plaques” value is listed as “significantly increased”, the “number of microglia/high powered field (HPF) in plaque-bearing regions of the cortex” value was “significantly increased” and the plaque-associated neurite dystrophy entry is “significantly reduced”. The plaque accumulation result in the series on Trem2−/− 5XFAD mice (cortex and hippocampus, 8 months of age) is reported as “did not moderate”. In the series on Trem2−/− 5XFAD mice (setting [10]), the “density of plaques (methoxy-X04 staining intensity)” value was “resembled that of plaques in 5XFAD mice” and the plaque shape complexity entry was “not significantly altered”. Besides, in the series on Trem2−/− 5XFAD mice (cyclocreatine-treated Trem2−/− 5XFAD mice vs untreated Trem2−/− 5XFAD mice), the “Spp1+ microglia” value is “significantly more”. In the series on 5XFAD mice, the “Spp1+ microglia” value is reported as “significantly more”. In series [3], the “autophagy (LC3II/LC3I ratio)” value is on record as “significantly limited” and the “microglial mTOR signaling” value was “restored”. Further, the “phosphorylation by creatine kinase in the forward reaction” value with creatine kinase was “phosphorylated efficiently”. The “accumulation in the brain” value in series [4] (mouse brain in vivo) is “can accumulate and function as a phosphagen in the mouse brain”. For the same compound, the transport across membranes entry in series [4] (mouse, in vivo) was “passively transported across membranes”.
Turning to tunicamycin, in the series on Trem2−/− BMDMs [5], the “Akt S473 phosphorylation” value was “less” and the LC3II/LC3I ratios entry is “greater”.
On to `CO/C1=C\C(C)=C\[C@@H](C)[C@@H](O)[C@@H](C)C/C(C)=C/C=C/[C@H](OC)[C@@H]([C@@H](C)[C@@H](O)[C@H](C)[C@@]2(O)C[C@@H](O)[C@H](C)[C@@H](C(C)C)O2)OC1=O` [bafilomycin, Bafilomycin A1], for which the LC3II result with Trem2−/− BMDMs [6] is given as “greatly increased”.
As for phosphocreatine, in series [2], the autophagy result is listed as “prevent”, the cell death result was “prevent” and the “metabolic activity / metabolic capacity” value is recorded as “rescue”.
As to “phosphocyclocreatine [cyclocreatine phosphate]”, the “stability of the phosphorous-nitrogen (P N) bond” value in series [7] was “more stable than that of phosphocreatine”.
For `NC(=O)c1ccc[n+]([C@@H]2O[C@H](COP(=O)([O-])O)[C@@H](O)[C@H]2O)c1` [NMN, nicotinamide mononucleotide], in series [2], the autophagy entry was “prevent”, the cell death result was “prevent” and the “metabolic activity / metabolic capacity” value is on record as “rescue”.

(Values after patent US12226382B2, “Methods for treating microglial dysfunction” (Washington University, priority 2017, dated 2025).)
